From patent US20210255193A1, “LYSINE REACTIVE PROBES AND USES THEREOF” (The Scripps Research Institute, priority 2017, published 2021)
Each block holds one molecule with its values, some of them ahead of it.

Key:
Test in all cases: competitive isoTOP-ABPP
Type in all cases: binding
[1] = target: T1, RPL10 60S ribosomal protein L10 (Homo sapiens, UniProt P27635); conditions: for isoTOP-ABPP reactivity ratio at lysine P27635_K121 / isoTOP-ABPP ratio (R) at liganded lysine P27635_K121: 50 uM, in vitro; for isoTOP-ABPP reactivity ratio at lysine P27635_K121: 231 sol; for isoTOP-ABPP ratio (R) at liganded lysine P27635_K121: sol, 231
T1 construct: isoTOP-ABPP experiments performed in cell lysates (in vitro); endogenous in cells; host or cells: soluble proteome of human cancer cell lines (MDA-MB-231; Ramos and Jurkat also prepared)
In short: (§1)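 Probe: STP-alkyne, 0.1 mM, 1 h RT, after fragment pretreatment of lysate (esters 50 μM; guanidinylators 100 μM). Tags: light = compound, heavy = DMSO, via CuAAC. Replicates averaged if SD <60% of mean; otherwise lowest ratio used when any R <4.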

[2] = target: T2, CUL2 Cullin-2 (Homo sapiens, UniProt Q13617); conditions: for isoTOP-ABPP reactivity ratio at lysine Q13617_K489 / isoTOP-ABPP ratio (R) at liganded lysine Q13617_K489: 50 uM, in vitro; for isoTOP-ABPP reactivity ratio at lysine Q13617_K489: 231 sol; for isoTOP-ABPP ratio (R) at liganded lysine Q13617_K489: sol, 231
T2 construct: isoTOP-ABPP experiments performed in cell lysates (in vitro); endogenous in cells; host or cells: soluble proteome of human cancer cell lines (MDA-MB-231, Ramos, Jurkat)
In short: as §1

[3] = target: T3, FECH Ferrochelatase, mitochondrial (Homo sapiens, UniProt P22830); conditions: for isoTOP-ABPP reactivity ratio at lysine P22830_K304 / isoTOP-ABPP ratio (R) at liganded lysine P22830_K304: 50 uM, in vitro; for isoTOP-ABPP reactivity ratio at lysine P22830_K304: 231 sol; for isoTOP-ABPP ratio (R) at liganded lysine P22830_K304: sol, 231
T3 construct: isoTOP-ABPP experiments performed in cell lysates (in vitro); endogenous in cells; host or cells: soluble proteome of human cancer cell lines (MDA-MB-231; Ramos and Jurkat also prepared)
T3 sequence (P22830 55-423): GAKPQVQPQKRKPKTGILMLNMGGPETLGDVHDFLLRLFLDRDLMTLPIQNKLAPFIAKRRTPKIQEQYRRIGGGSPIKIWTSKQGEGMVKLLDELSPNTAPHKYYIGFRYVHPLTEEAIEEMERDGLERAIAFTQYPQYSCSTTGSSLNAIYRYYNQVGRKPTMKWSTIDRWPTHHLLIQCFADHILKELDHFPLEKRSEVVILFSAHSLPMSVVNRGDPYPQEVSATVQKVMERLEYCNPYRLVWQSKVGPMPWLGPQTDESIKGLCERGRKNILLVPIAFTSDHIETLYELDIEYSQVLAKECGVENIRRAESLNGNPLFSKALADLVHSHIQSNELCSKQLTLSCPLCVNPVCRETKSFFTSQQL
In short: as §1

[4] = target: T4, KPNA2 Importin subunit alpha-2 (Homo sapiens, UniProt P52292); conditions: for isoTOP-ABPP reactivity ratio at lysine P52292_K459 / isoTOP-ABPP ratio (R) at liganded lysine P52292_K459: 50 uM, in vitro; for isoTOP-ABPP reactivity ratio at lysine P52292_K459: 231 sol; for isoTOP-ABPP ratio (R) at liganded lysine P52292_K459: sol, 231
T4 construct: isoTOP-ABPP experiments performed in cell lysates (in vitro); endogenous in cells; host or cells: soluble proteome of human cancer cell lines (MDA-MB-231, Ramos, Jurkat)
In short: as §1

[5] = target: T5, ABHD10 Abhydrolase domain-containing protein 10, mitochondrial (Homo sapiens, UniProt Q9NUJ1); parameters: key to isoTOP-ABPP reactivity ratio at lysine Q9NUJ1_K185: R = MS1 peak area ratio, DMSO (heavy) / compound-treated (light); capped at 20; conditions: for isoTOP-ABPP reactivity ratio at lysine Q9NUJ1_K185 / isoTOP-ABPP ratio (R) at liganded lysine Q9NUJ1_K185: 50 uM, in vitro; for isoTOP-ABPP reactivity ratio at lysine Q9NUJ1_K185: 231 sol; for isoTOP-ABPP ratio (R) at liganded lysine Q9NUJ1_K185: sol, 231
T5 construct: endogenous in cells; host or cells: MDA-MB-231 lysate
T5 sequence (Q9NUJ1 53-306): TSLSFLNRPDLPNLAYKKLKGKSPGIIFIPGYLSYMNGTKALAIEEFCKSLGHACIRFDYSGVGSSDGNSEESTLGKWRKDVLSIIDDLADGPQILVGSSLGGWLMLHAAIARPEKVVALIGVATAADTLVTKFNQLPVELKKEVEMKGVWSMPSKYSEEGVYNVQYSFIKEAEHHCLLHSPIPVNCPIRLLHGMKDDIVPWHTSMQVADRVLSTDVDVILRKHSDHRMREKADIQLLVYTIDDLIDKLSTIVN
Experimental: In vitro covalent fragment treatment for isoTOP-ABPP. All compounds were made up as solutions in DMSO (100×) and were used at a final concentration of 50 μM for activated esters and 100 μM for guanidinylating agents. For each profiling sample, 0.5 ml of lysate was treated with 5 μl of the 100× compound stock solution or 5 μl of DMSO. Samples were treated with activated esters for
STP-alkyne labeling and click chemistry. For concentration-dependent reactivity measurements by isoTOP-ABPP, 0.5 ml proteome aliquots were treated at ambient temperature with 1 mM STP-alkyne 1 (5 μl of 100 mM stock in DMSO) and 0.1 mM STP alkyne 1 (5 μl of 10 mM stock in DMSO), respectively. For competitive isoTOP-ABPP, after in vitro fragment treatment (detailed above), the samples were labeled for 1 h at ambient temperature with 0.1 mM STP-alkyne 1 (5 μl of 10 mM stock in DMSO). Samples were conjugated by copper-mediated azide-alkyne cycloaddition (CuAAC) to either the light (1 mM STP-alkyne or fragment treated) or heavy (0.1 mM STP-alkyne or DMSO treated) TEV tags (10 μl of 5 mM stocks in DMSO, final concentration=100 μM) using tris(2-carboxyethyl)phosphine hydrochloride
R value calculation and processing. The ratios of light and heavy MS1 peaks for each unique peptide were quantified with a CIMAGE software using default parameters (3 MS1 acquisitions per peak and signal to noise threshold set to 2.5). For reactivity measurements by isoTOP-ABPP, the R value was calculated from the ratio of MS1 peak areas, comparing the 1 mM STP alkyne sample (light TEV tag) with the 0.1 mM STP alkyne sample (heavy TEV tag). For competitive isoTOP-ABPP, the R value was calculated from the ratio of MS1 peak areas, comparing the DMSO treated sample (heavy TEV tag) with the compound treated sample (light TEV tag). […] Ratios for unique peptide entries are calculated for each experiment; overlapping peptides with the same modified lysine (for example, different charge states, MudPIT chromatographic steps or tryptic termini) are grouped together and the median ratio is reported as the final ratio (R). The peptide ratios reported by CIMAGE were further filtered to ensure the removal or correction of low-quality ratios in each individual data set. The quality filters applied were the following: removal of half tryptic peptides; for ratios with high standard deviations from the median (90% of the median or above) the lowest ratio was taken instead of the median; removal of peptides with R=20 and only a single MS2 event triggered during the elution of the parent ion; manual annotation of all the peptides with ratios of 20, removing any peptides with low quality elution profiles that remained after the previous curation steps (only done for competitive isoTOP-ABPP).
Cross-data processing for fragment screening. For compound treated samples, biological replicates of the same condition were averaged, if the standard deviation was below 60% of the mean; otherwise, for lysines with at least one R value <4 for a particular compound, the lowest value of the ratio set was taken. For lysines, where all R values for a particular compound were ≥4, the average was reported. For peptides containing several possible modified lysines, the lysine with the highest number of quantification events was used for analysis and the remaining, redundant peptides were reported as alternative modification sites. Peptides included in the aggregate dataset (those used for further bioinformatics and statistical analyses) were required to have been quantified in 2 experiments for competitive isoTOP-ABPP. Lysines were categorized as liganded, if they had at least one ratio R≥4 (hit fragments). For liganded lysines with R=20 for all liganding events, lysines were required to have been quantified with R=20 in two separate experiments and were further required to have been quantified with R<20 in one additional experiment.

T2 sequence (Q13617 whole entry): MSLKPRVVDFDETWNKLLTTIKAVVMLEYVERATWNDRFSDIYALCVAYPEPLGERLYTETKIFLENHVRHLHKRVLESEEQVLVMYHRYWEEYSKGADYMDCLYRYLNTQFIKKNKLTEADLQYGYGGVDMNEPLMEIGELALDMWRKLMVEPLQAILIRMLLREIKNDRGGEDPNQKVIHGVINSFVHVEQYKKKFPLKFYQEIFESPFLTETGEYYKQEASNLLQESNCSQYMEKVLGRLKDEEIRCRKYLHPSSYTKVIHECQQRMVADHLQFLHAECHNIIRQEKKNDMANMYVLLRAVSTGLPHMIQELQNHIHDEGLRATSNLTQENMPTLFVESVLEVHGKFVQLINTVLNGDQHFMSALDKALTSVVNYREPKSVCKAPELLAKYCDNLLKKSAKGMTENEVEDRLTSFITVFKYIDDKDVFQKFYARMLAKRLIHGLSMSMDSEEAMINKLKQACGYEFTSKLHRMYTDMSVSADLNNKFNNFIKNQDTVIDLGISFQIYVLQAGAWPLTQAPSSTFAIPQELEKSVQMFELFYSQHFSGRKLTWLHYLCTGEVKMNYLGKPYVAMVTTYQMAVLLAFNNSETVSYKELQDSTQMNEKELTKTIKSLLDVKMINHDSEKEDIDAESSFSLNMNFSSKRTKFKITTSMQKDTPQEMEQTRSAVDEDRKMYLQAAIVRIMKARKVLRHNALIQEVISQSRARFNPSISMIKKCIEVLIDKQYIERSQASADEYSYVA

Structure (SMILES): O=C(CCc1cn(-c2ccccc2)nc1-c1ccccc1)Oc1ccc([N+](=O)[O-])cc1[N+](=O)[O-] [fragment 29, 2,4-Dinitrophenyl 3-(1,3-diphenyl-1H-pyrazol-4-yl)propanoate]
isoTOP-ABPP reactivity ratio at lysine P27635_K121 [1]: 1.4
isoTOP-ABPP reactivity ratio at lysine Q13617_K489 [2]: 1.2
isoTOP-ABPP reactivity ratio at lysine P22830_K304 [3]: 5.4
isoTOP-ABPP reactivity ratio at lysine P52292_K459 [4]: 2.0
isoTOP-ABPP reactivity ratio at lysine Q9NUJ1_K185 [5]: 1.3

Structure (SMILES): N#Cc1ccc(C(=O)Oc2ccc([N+](=O)[O-])cc2[N+](=O)[O-])cc1 [fragment 44, 2,4-Dinitrophenyl 4-cyanobenzoate]
isoTOP-ABPP ratio, lysine P27635_K121 ([1]; 50 uM_231_sol_in vitro): 0.6
isoTOP-ABPP ratio, lysine Q13617_K489 ([2]; 50 uM_231_sol_in vitro): 0.8
isoTOP-ABPP ratio, lysine P22830_K304 ([3]; 50 uM_231_sol_in vitro): 1.1
isoTOP-ABPP ratio, lysine P52292_K459 ([4]; 50 uM_231_sol_in vitro): 1.6
isoTOP-ABPP ratio, lysine Q9NUJ1_K185 ([5]; 50 uM_231_sol_in vitro): 1.2

isoTOP-ABPP reactivity ratio at lysine P27635_K121 [1]: 0.9
isoTOP-ABPP reactivity ratio at lysine Q13617_K489 [2]: 0.9
isoTOP-ABPP reactivity ratio at lysine P22830_K304 [3]: 1.7
isoTOP-ABPP reactivity ratio at lysine P52292_K459 [4]: 8.2
isoTOP-ABPP reactivity ratio at lysine Q9NUJ1_K185 [5]: 1.5
Structure (SMILES): O=C(CCc1coc2cc(F)ccc2c1=O)Oc1c(F)c(F)c(F)c(F)c1F [fragment 26, Pentafluorophenyl 3-(7-fluoro-4-oxo-4H-chromen-3-yl)propanoate]

Structure (SMILES): O=C(CC12CC3CC(CC(C3)C1)C2)Oc1ccc([N+](=O)[O-])cc1[N+](=O)[O-] [fragment 38, 2,4-Dinitrophenyl 2-(adamantan-1-yl)acetate]
isoTOP-ABPP ratio (R) at liganded lysine P27635_K121 [1]: 20.0
isoTOP-ABPP ratio (R) at liganded lysine Q13617_K489 [2]: 1.4
isoTOP-ABPP ratio (R) at liganded lysine P22830_K304 [3]: 1.8
isoTOP-ABPP ratio (R) at liganded lysine P52292_K459 [4]: 20.0
isoTOP-ABPP ratio (R) at liganded lysine Q9NUJ1_K185 [5]: 3.3

isoTOP-ABPP ratio, lysine P27635_K121 ([1]; 100 uM_231_sol_in vitro): 1.0
isoTOP-ABPP ratio, lysine Q13617_K489 ([2]; 100 uM_231_sol_in vitro): 1.0
isoTOP-ABPP ratio, lysine P22830_K304 ([3]; 100 uM_231_sol_in vitro): 2.3
isoTOP-ABPP ratio, lysine P52292_K459 ([4]; 100 uM_231_sol_in vitro): 1.6
isoTOP-ABPP ratio, lysine Q9NUJ1_K185 ([5]; 100 uM_231_sol_in vitro): 1.3
Structure (SMILES): CC(C)(C)OC(=O)N=C(NC(=O)OC(C)(C)C)n1cccn1 [fragment 50, reference compound]

Structure (SMILES): O=C(CCc1coc2cc(F)ccc2c1=O)Oc1ccc([N+](=O)[O-])cc1[N+](=O)[O-] [fragment 36, 2,4-Dinitrophenyl 3-(7-fluoro-4-oxo-4H-chromen-3-yl)propanoate]
isoTOP-ABPP ratio (R) at liganded lysine P27635_K121 [1]: 0.5
isoTOP-ABPP ratio (R) at liganded lysine Q13617_K489 [2]: 1.0
isoTOP-ABPP ratio (R) at liganded lysine P22830_K304 [3]: 2.0
isoTOP-ABPP ratio (R) at liganded lysine P52292_K459 [4]: 9.2
isoTOP-ABPP ratio (R) at liganded lysine Q9NUJ1_K185 [5]: 1.4

isoTOP-ABPP ratio, lysine P27635_K121 ([1]; 50 uM_231_sol_in vitro): 1.1
isoTOP-ABPP ratio, lysine Q13617_K489 ([2]; 50 uM_231_sol_in vitro): 0.8
isoTOP-ABPP ratio, lysine P22830_K304 ([3]; 50 uM_231_sol_in vitro): 2.2
isoTOP-ABPP ratio, lysine P52292_K459 ([4]; 50 uM_231_sol_in vitro): 1.2
isoTOP-ABPP ratio, lysine Q9NUJ1_K185 ([5]; 50 uM_231_sol_in vitro): 1.8
Structure (SMILES): O=C(Oc1c(F)c(F)c(C(F)(F)F)c(F)c1F)c1cc(C(F)(F)F)cc(C(F)(F)F)c1 [fragment 47, 2,3,5,6-Tetrafluoro-4-(trifluoromethyl)phenyl 3,5-bis(trifluoromethyl)benzoate]
